From patent US20120095022A1, “DERIVATIVES OF 10-AMINO-1,2,3,4-TETRAHYDROPYRIDO[2,1-A]ISOINDOL-6(10BH)-ONES, METHOD FOR PREPARATION THEREOF AND THERAPEUTIC USES THEREOF” (UNIVERSITE D'ORLEANS, priority 2009, published 2012)

Experiments:
CDK5/D25 = biological target: T1, CDK5/D25 (Homo sapiens, UniProt Q00535); experiment: CDK5 kinase inhibition (33P-ATP, histone H1); format: biochemical; details: buffer C, 30° C., 15 μM ATP, read-out: IC50 μM Kinases CDK5
T1 construct: made in house
Procedure: The protein kinase inhibition activities of the compounds of the invention are tested according to the following general procedure:
Buffer C: 60 mM β-glycerophosphate, 15 mM p-nitrophenyl-phosphate, 25 mM Mops (pH 7.2), 5 mM EGTA, 15 mM mgCl2, 1 mM DTT, 1 mM sodium vanadate and 1 mM phenylphosphate.
The controls were made with suitable dilutions of DMSO.
ATP (3.000 Ci/mmol.; 10 mCi/mL) in a final volume of 30 μL. After 30 mins of incubation at 30° C., 25 μL of supernatant aliquots were deposited on phosphocellulose Whatman P81 paper pieces of 2.5×3 cm, and after 20 seconds, the filters were washed five times (for at least 5 minutes each time) in a solution of 10 mL of phosphoric acid/1 litre of water. The wet filters were counted in the presence of 1 mL of scintillation fluid ACS (Amersham).

GSK-3αβ = experiment: GSK-3 kinase inhibition (GS-1 substrate); details: read-out: IC50 μM Kinases GSK3, buffer A, 30° C., 15 μM ATP
DYRK1A = DYRK1A (Homo sapiens, UniProt Q13627); experiment: DYRK1A kinase inhibition (Woodtide substrate)
Huh7 (liver) = experiment: Cytotoxicity on human cells, automated nuclei counting: Huh7; format: cell-based; details: Huh-7, exposed 24 h to 48 h, 0.1 to 25 μM
Procedure: (§1) Cytotoxicity: This method is based on an automated imaging analysis. 4.10^3 cells were cultivated on 96-well plates and left for 24 hours so as to bind, to spread and proliferate.
(§2) All the cell lines were cultivated in a DMEM or RPMI (Invitrogen) medium. All these media were completed with antibiotics (penicillin-streptomycin) (Lonza) and 10% by volume of fetal calf serum (Invitrogen). The cells were cultivated at 37° C. with 5% of CO2. The treatments with the molecules to be tested were carried out with increasing concentrations. The control experiments were also carried out by using suitable dilutions of DMSO (maximum 1% DMSO).

Caco (colon) = experiment: Cytotoxicity on human cells, automated nuclei counting: Caco; format: cell-based; details: exposed 24 h to 48 h, 0.1 to 25 μM
Procedure: as §1, §2

MDA-MB 231 (breast) = experiment: Cytotoxicity on human cells, automated nuclei counting: MDA-MB 231; format: cell-based; details: MDA-MB 231 cells, exposed 24 h to 48 h, 0.1 to 25 μM
Procedure: as §1, §2

HCT 116 (colon) = experiment: Cytotoxicity on human cells, automated nuclei counting: HCT 116; format: cell-based; details: HCT 116 cells, exposed 24 h to 48 h, 0.1 to 25 μM
Procedure: as §1, §2

PC3 (prostate) = experiment: Cytotoxicity on human cells, automated nuclei counting: PC3; format: cell-based; details: PC-3, exposed 24 h to 48 h, 0.1 to 25 μM
Procedure: as §1, §2

NCI (lung) = experiment: Cytotoxicity on human cells, automated nuclei counting: NCI; format: cell-based; details: exposed 24 h to 48 h, 0.1 to 25 μM
Procedure: as §1, §2

fibroblast = experiment: Cytotoxicity on human cells, automated nuclei counting: fibroblast; format: cell-based; details: exposed 24 h to 48 h, 0.1 to 25 μM
Procedure: as §1, §2

T1 sequence (Q00535 whole entry): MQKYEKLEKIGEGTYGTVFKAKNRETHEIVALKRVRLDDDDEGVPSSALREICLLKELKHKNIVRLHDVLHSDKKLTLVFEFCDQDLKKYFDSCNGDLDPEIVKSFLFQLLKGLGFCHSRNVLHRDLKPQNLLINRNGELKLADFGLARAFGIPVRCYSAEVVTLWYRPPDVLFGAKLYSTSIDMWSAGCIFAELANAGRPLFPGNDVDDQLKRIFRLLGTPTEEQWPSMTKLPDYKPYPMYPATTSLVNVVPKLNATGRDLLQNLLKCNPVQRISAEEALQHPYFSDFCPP
T1 sequence (Q15078 99-307 partner limits assumed): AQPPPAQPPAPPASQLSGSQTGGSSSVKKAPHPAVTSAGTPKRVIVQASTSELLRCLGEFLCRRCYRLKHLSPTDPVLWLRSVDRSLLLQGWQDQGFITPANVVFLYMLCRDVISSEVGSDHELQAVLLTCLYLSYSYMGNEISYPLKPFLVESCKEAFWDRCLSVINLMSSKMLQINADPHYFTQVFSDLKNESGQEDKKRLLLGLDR

| Compound | IC50 (CDK5/D25) [µM] | melting point [°C] | IC50 (GSK-3αβ) [µM] | IC50 (DYRK1A) [nM] | IC50 (Huh7 (liver)) [µM] | IC50 (Caco (colon)) [µM] | IC50 (MDA-MB 231 (breast)) [µM] | IC50 (HCT 116 (colon)) [µM] | IC50 (PC3 (prostate)) [µM] | IC50 (NCI (lung)) [µM] | IC50 (fibroblast) [µM] |
| --- | --- | --- | --- | --- | --- | --- | --- | --- | --- | --- | --- |
| Cn1ccc(NC(=O)Nc2cccc3c2C2CCCCN2C3=O)n1 (stereo not shown) [Compound 41, 1-(1-Methyl-1H-pyrazol-3-yl)-3-(6-oxo-1,2,3,4,6,10b-hexahydro-pyrido[2,1-a]isoindol-10-yl)-urea] | 0.51 | 233 | 0.31 | > 10000 |  |  |  |  |  |  |  |
| O=C1c2cccc(NC(=S)Nc3ccccn3)c2C2CCCCN12 (stereo not shown) [Compound 62, 1-(6-Oxo-1,2,3,4,6,10b-hexahydropyrido[2,1-a]isoindol-10-yl)-3-(pyridin-2-yl)thiourea] |  | 195 | 2.3 | 47000 | > 25 | 20 | 25 | 8 | 20 | > 25 | > 25 |
| Cn1ccc(NC(=O)Nc2cccc3c2C2CC4(CCN2C3=O)SCCS4)n1 (stereo not shown) [Compound 40, 1-(6′-Oxo-3′,4′,6′,10b′-tetrahydro-1′H-spiro[[1,3]dithiolane-2,2′-pyrido[2,1-a]isoindole]-10′-yl)-3-(1-Methyl-1H-pyrazol-3-yl)urea] | ≥ 10 | 135 | 1.9 | > 10000 |  |  |  |  |  |  |  |
| COC1CCN2C(=O)c3cccc(NC(=O)Nc4ncccc4C)c3C2C1 (stereo not shown) [Compound 57, 1-(2-Methoxy-6-oxo-1,2,3,4,6,10b-hexahydropyrido[2,1-a]isoindol-10-yl)-3-(3-methylpyridin-2-yl)urea] | 1.1 |  |  | > 10000 | 1.2 | 2 | 2.2 | 1 | 1.2 | 4 | 3 |
| O=C(Nc1ccncn1)Nc1cccc2c1C1CCCCN1C2=O (stereo not shown) [Compound 32, 1-(6-Oxo-1,2,3,4,6,10b-hexahydropyrido[2,1-a]isoindol-10-yl)-3-(pyrimidin-4-yl)urea] | 1.5 | 218 | 0.36 | 71000 |  |  |  |  |  |  |  |
| O=C(Nc1cccc2c1C1CCCCN1C2=O)Nc1nc(Cl)c(Cl)c(Cl)c1Cl (stereo not shown) [Compound 33, 1-(6-oxo-1,2,3,4,6,10b-hexahydropyrido[2,1-a]isoindol-10-yl)-3-(perchloro-pyridin-2-yl)urea] |  | 246 | 4.3 | > 100000 | 0.25 | 1.5 | 0.5 | 0.5 | 1 | 0.8 | 0.5 |
| COC1CCN2C(=O)c3cccc(NC(=O)Nc4ccn(C)n4)c3C2C1 (stereo not shown) [Compound 60, 1-(2-methoxy-6-oxo-1,2,3,4,6,10b-hexahydropyrido[2,1-a]isoindol-10-yl)-3-(1-methyl-1H-pyrazol-3-yl)urea] | 2.3 |  |  | > 10000 | 2 | 15 | 10 | 4 | 7 | 2 | 15 |

Continued, in another order:

| IC50 (CDK5/D25) [µM] | melting point [°C] | IC50 (GSK-3αβ) [µM] | IC50 (DYRK1A) [nM] | Compound | IC50 (Huh7 (liver)) [µM] | IC50 (Caco (colon)) [µM] | IC50 (MDA-MB 231 (breast)) [µM] | IC50 (HCT 116 (colon)) [µM] | IC50 (PC3 (prostate)) [µM] | IC50 (NCI (lung)) [µM] | IC50 (fibroblast) [µM] |
| --- | --- | --- | --- | --- | --- | --- | --- | --- | --- | --- | --- |
| > 10 | > 260 | 2.5 | ≥ 10000 | O=C(Nc1cc(O)c2ccccc2n1)Nc1cccc2c1C1CC(O)CCN1C2=O (stereo not shown) [Compound 110, 1-(2-Hydroxy-6-oxo-1,2,3,4,6,10b-hexahydropyrido[2,1-a]isoindol-10-yl)-3-(4-hydroxyquinolin-2-yl)urea] |  |  |  |  |  |  |  |
|  | 185 | 0.47 | > 10000 | O=C(Nc1cc[nH]n1)Nc1cccc2c1C1CCCCN1C2=O (stereo not shown) [Compound 119, 1-(6-Oxo-1,2,3,4,6,10b-hexahydro-pyrido[2,1-a]isoindol-10-yl)-3-(1H-pyrazol-3-yl)-urea] |  |  |  |  |  |  |  |
| > 10 | > 260 | 1.3 | ≥ 10000 | O=C1CCN2C(=O)c3cccc(NC(=O)Nc4cc(O)c5ccccc5n4)c3C2C1 (stereo not shown) [Compound 103, 1-(2,6-Dioxo-1,2,3,4,6,10b-hexahydropyrido[2,1-a]isoindol-10-yl)-3-(4-hydroxyquinolin-2-yl)urea] |  |  |  |  |  |  |  |
|  | 136 | 0.4 | > 10000 | CC(C)(C)OC(=O)n1ccc(NC(=O)Nc2cccc3c2C2CCCCN2C3=O)n1 (stereo not shown) [Compound 118] |  |  |  |  |  |  |  |
